Test results reported in patent US20250351832A1, “PHYTOCHEMICALS AS BIOPESTICIDES AND BIOSTIMULANTS” (KAY BEE BIO ORGANICS PVT. LTD., priority 2024, published 2025).
Like-named read-outs stand apart in the source and are kept apart here.

Columns and labels:
Thrips [1] = settings: 48 h, 1 mL or g/L
tomato seedlings = experiment: Response of tomato plants, greenhouse growth (Ex. 30); assay type: in vivo; settings: for CCI 5th Day / Plant Height 5th Day / Stem Girth 5th Day: 120 h; for CCI 10th Day / Plant Height 10th Day / Root Length % Increase over control / Stem Girth 10th Day: 240 h
Spodoptera litura [2] = settings: Spodoptera litura 3rd instar on cabbage plants; dose 1 ml/gm/lit. spray; 72 hrs after application
Aphid [3] = experiment: whole plant or invertebrate; settings: 48 h
chili seedlings = experiment: Response of chili plants, greenhouse growth (Ex. 31); assay type: in vivo; settings: for CCI 5th Day / Plant Height (cm) 5th Day: 120 h; for CCI 10th Day / Plant Height (cm) 10th Day / Root Lenght % Increase over control: 240 h; for CCI % Increase over pre on 10th Day / Plant Height % Increase over pre on 10th Day / Root Lenght (cm) 10th Day / Stem Girth % Increase over pre on 10th Day: chili seedlings, dose 1 ml/gm/lit
Helicoverpa armigera [4] = settings: Helicoverpa armigera on okra fruits, dose 1 ml/gm/lit., 72 Hrs.
Mealy Bug [5] = experiment: Green house effect on mealy bugs, cotton plants (Ex. 24); settings: in vivo
Spodoptera litura [6] = settings: 72 h, 1 mL or g/L
Helicoverpa armigera [7] = settings: Helicoverpa armigera 3rd instar on chickpea plants, dose 1 ml/gm/lit. spray
Spodoptera litura [8] = experiment: whole plant or invertebrate; settings: 72 h
Aphid [9] = test system: Aphid
Mite [10] = settings: Dose 1 ml/gm/lit.; 48 hrs
Spodoptera litura [11] = experiment: Controlled conditions, Spodoptera litura on cabbage plants (Ex. 26); settings: in vivo
Thrips [12] = experiment: whole plant or invertebrate; settings: in Gossypium hirsutum, 48 h
Thrips [13] = settings: 48 h
Mite [14] = experiment: Green house effect on mite, okra plants (Ex. 23); settings: in vivo
Aphid [15] = settings: 48 h, 1 mL or g/L
Mealy Bug [16] = experiment: In vitro bio-efficacy against mealy bug (Ex. 16); settings: in vivo
[17] = cited from earlier work; for Phytotonic Effect: Table 13, effect on plants, descriptive
Thrips [18] = experiment: Greenhouse effect on thrips, cotton plants (Ex. 27); settings: in vivo
Alternaria alternata = experiment: In vitro poisoned food technique against fungus (Ex. 20); assay type: cell-based
Mite [19] = settings: mite on okra plants, green house; dose 1 ml/gm/lit. spray; 48 hrs after application
Helicoverpa armigera [20] = experiment: In vitro bio-efficacy against Helicoverpa armigera (Ex. 17); settings: in vivo
Helicoverpa armigera [21] = experiment: Controlled conditions, Helicoverpa armigera on chickpea plants (Ex. 25); settings: in vivo
[22] = tomato seedlings, 10th day, dose 1 ml/gm/lit
[23] = tomato seedlings, dose 1 ml/gm/lit, 10th day
[24] = read-out: % Corrected Mortality at 48 Hrs.
[25] = read-out: % Mortality at 48 Hrs.
[26] = read-out: % Corrected Mortality at 72 Hrs.
[27] = read-out: % Mortality at 72 Hrs.
[28] = Table 13, descriptive, no test described

C=C(C)[C@H]1CC=C(C)CC1 [D-limonene]
Total No. of dead insect at 48 Hrs. (Thrips [1]): 3.75 | CCI Pre (tomato seedlings): 11.59 | Plant Height Pre (tomato seedlings): 5.52 cm | Stem Girth Pre (tomato seedlings): 1.30 mm | CCI 5th Day (tomato seedlings): 13.66 | Plant Height 5th Day (tomato seedlings): 6.44 cm | Stem Girth 5th Day (tomato seedlings): 1.98 mm | CCI 10th Day (tomato seedlings): 15.54 | Plant Height 10th Day (tomato seedlings): 7.56 cm | Root Length % Increase over control (tomato seedlings): 25.57% | Stem Girth 10th Day (tomato seedlings): 2.21 mm | Plant Height % Increase over pre on 10th Day (tomato seedlings; [22]): 36.96% | Stem Girth % Increase over pre on 10th Day (tomato seedlings; [22]): 69.48% | CCI % Increase over pre on 10th Day (tomato seedlings; [23]): 34.08% | % Mortality at 72 Hrs. (Spodoptera litura [2]): 27.50% | mortality at 1 mL or g/L (Aphid [3]; [24]): 55.9% | mortality at 1 mL or g/L (Aphid [3]; [25]): 62.5% | CCI Pre (chili seedlings): 10.30 | Plant Height (cm) Pre (chili seedlings): 4.90 cm | CCI 5th Day (chili seedlings): 13.60 | Plant Height (cm) 5th Day (chili seedlings): 6.97 cm | CCI 10th Day (chili seedlings): 17.4 | Plant Height (cm) 10th Day (chili seedlings): 8.24 cm | Root Lenght % Increase over control (chili seedlings): 61.51% | CCI % Increase over pre on 10th Day (chili seedlings): 68.93% | Plant Height % Increase over pre on 10th Day (chili seedlings): 68.16% | Root Lenght (cm) 10th Day (chili seedlings): 4.42 cm | Stem Girth % Increase over pre on 10th Day (chili seedlings): 60.00% | % Mortality at 72 Hrs. (Helicoverpa armigera [4]): 32.50% | % Corrected Mortality at 72 Hrs. (Helicoverpa armigera [4]; corrected for water control): 32.50% | % Corrected Mortality at 48 Hrs. (Mealy Bug [5]): 38.89% | % Mortality at 48 Hrs. (Mealy Bug [5]): 45.00% | Total No. of dead insect at 72 Hrs. (Spodoptera litura [6]): 2.50 | % Mortality at 72 Hrs. (Helicoverpa armigera [7]; 72 hrs after application): 32.50% | % Corrected Mortality at 72 Hrs. (Helicoverpa armigera [7]; 72 hrs, corrected for water control): 32.50% | mortality at 1 mL or g/L (Spodoptera litura [8]; [26]): 21.1% | mortality at 1 mL or g/L (Spodoptera litura [8]; [27]): 25% | Total No. of dead insect at 48 Hrs. (Aphid [9]): 6.25 | % Corrected Mortality at 48 Hrs. (Aphid [9]; Dose 1 ml/gm/lit., 48 hrs): 57.14% | % Corrected Mortality at 48 Hrs. (Mite [10]): 45.95% | % Mortality at 48 Hrs. (Mite [10]): 50.00% | % Corrected Mortality at 72 Hrs. (Spodoptera litura [11]): 23.68% | mortality at 1 mL or g/L (Thrips [12]; [24]): 28.6% | mortality at 1 mL or g/L (Thrips [12]; [25]): 37.5% | Total No. of dead insect at 48 Hrs. (Thrips [13]): 37.50 | % Corrected Mortality at 48 Hrs. (Mite [14]): 50.00% | Total No. of dead insect at 48 Hrs. (Aphid [15]): 62.50 | % Corrected Mortality at 48 Hrs. (Mealy Bug [16]): 39.47% | % Mortality at 48 Hrs. (Mealy Bug [16]): 42.50% | Acaricidal Activity - Mode of action [17, 28]: Ovicidal, repellent activity | Antioxidant Activity - Mode of action [17, 28]: Possesses antioxidant | Virucidal Activity - Mode of action [17, 28]: Exhibits viricidal activities | Phytotonic Effect [17]: Exhibits plant | % Corrected Mortality at 48 Hrs. (Thrips [18]): 30.56% | inhibition of growth at 1 mL or g/L (Alternaria alternata; […]): 46.6% | % Mortality at 48 Hrs. (Mite [19]): 52.50%

C=CCc1ccc(O)c(OC)c1 [Eugenol]
Total No. of dead insect at 48 Hrs. (Thrips [1]): 2.50 | % Corrected Mortality at 72 Hrs. (Helicoverpa armigera [20]): 47.50% | % Mortality at 72 Hrs. (Helicoverpa armigera [20]): 47.50% | CCI Pre (tomato seedlings): 11.50 | Plant Height Pre (tomato seedlings): 5.65 cm | Stem Girth Pre (tomato seedlings): 1.34 mm | CCI 5th Day (tomato seedlings): 13.74 | Plant Height 5th Day (tomato seedlings): 6.66 cm | Stem Girth 5th Day (tomato seedlings): 1.70 mm | CCI 10th Day (tomato seedlings): 15.48 | Plant Height 10th Day (tomato seedlings): 7.56 cm | Root Length % Increase over control (tomato seedlings): 31.25% | Stem Girth 10th Day (tomato seedlings): 2.31 mm | Plant Height % Increase over pre on 10th Day (tomato seedlings; [22]): 33.81% | Stem Girth % Increase over pre on 10th Day (tomato seedlings; [22]): 72.90% | CCI % Increase over pre on 10th Day (tomato seedlings; [23]): 34.61% | Root Length (cm) 10th Day (tomato seedlings; [23]): 4.37 cm | mortality at 1 mL or g/L (Aphid [3]; [24]): 58.8% | mortality at 1 mL or g/L (Aphid [3]; [25]): 65% | CCI Pre (chili seedlings): 10.10 | Plant Height (cm) Pre (chili seedlings): 4.57 cm | CCI 5th Day (chili seedlings): 13.40 | Plant Height (cm) 5th Day (chili seedlings): 6.53 cm | CCI 10th Day (chili seedlings): 15.48 | Plant Height (cm) 10th Day (chili seedlings): 7.59 cm | Root Lenght % Increase over control (chili seedlings): 52.07% | CCI % Increase over pre on 10th Day (chili seedlings): 53.27% | Plant Height % Increase over pre on 10th Day (chili seedlings): 66.08% | Root Lenght (cm) 10th Day (chili seedlings): 4.16 cm | Stem Girth % Increase over pre on 10th Day (chili seedlings): 54.59% | % Corrected Mortality at 48 Hrs. (Mealy Bug [5]): 72.22% | % Mortality at 48 Hrs. (Mealy Bug [5]): 75.00% | Total No. of dead insect at 72 Hrs. (Spodoptera litura [6]): 6.00 | mortality at 1 mL or g/L (Spodoptera litura [8]; [26]): 57.9% | mortality at 1 mL or g/L (Spodoptera litura [8]; [27]): 60% | Total No. of dead insect at 48 Hrs. (Aphid [9]): 6.00 | % Corrected Mortality at 48 Hrs. (Aphid [9]; Dose 1 ml/gm/lit., 48 hrs): 54.29% | % Mortality at 48 Hrs. (Aphid [9]; Dose 1 ml/gm/lit., 48 hrs): 60.00% | % Corrected Mortality at 48 Hrs. (Mite [10]): 48.65% | % Corrected Mortality at 72 Hrs. (Spodoptera litura [11]): 60.53% | % Mortality at 72 Hrs. (Spodoptera litura [11]): 62.50% | mortality at 1 mL or g/L (Thrips [12]; [24]): 14.3% | mortality at 1 mL or g/L (Thrips [12]; [25]): 25% | Total No. of dead insect at 48 Hrs. (Thrips [13]): 27.50 | % Corrected Mortality at 48 Hrs. (Mite [14]): 50.00% | % Mortality at 48 Hrs. (Mite [14]): 52.50% | % Corrected Mortality at 72 Hrs. (Helicoverpa armigera [21]): 42.50% | % Mortality at 72 Hrs. (Helicoverpa armigera [21]): 42.50% | Total No. of dead insect at 48 Hrs. (Aphid [15]): 65.00 | % Corrected Mortality at 48 Hrs. (Mealy Bug [16]): 63.16% | % Mortality at 48 Hrs. (Mealy Bug [16]): 65.00% | Acaricidal Activity - Mode of action [17, 28]: Inhibitory effects against | Antifungal Activity - Mode of action [17, 28]: Inhibition of myceial growth | Antioxidant Activity - Mode of action [17, 28]: Scavenge free radicals, | Bactericidal Activity - Mode of action [17, 28]: Alters membrane permeability | Insecticidal Activities - Mode of action [17, 28]: Growth inhibitory, | Nematicidal Activity - Mode of action [17, 28]: Inhibited egg differentiation | Virucidal Activity - Mode of action [17, 28]: Inactivated the cell-free | Phytotonic Effect [17]: Regulating | % Corrected Mortality at 48 Hrs. (Thrips [18]): 19.44% | % Mortality at 48 Hrs. (Thrips [18]): 27.50% | inhibition of growth at 1 mL or g/L (Alternaria alternata; poisoned food technique, PDA medium, dose 1 ml/gm/lit., after seven days, vs untreated control, read-out: % Inhibition of growth): 42.6%
